Assays:
Assay type in all cases: cell-based
[1] = system: Chlorella (KAS603); test: Trehalose preservation, storage by air drying on paper disk; details: for % Viability: 0M control = 100%; for Growth: final/initial density
Method: (§1) Flask cultures (40 ml) of cells are grown to mid-log phase with a density between 3×10^6 and 3×10^7 cells/ml, and are centrifuged. Culture medium is removed after centrifugation, resulting in more concentrated algae cells. Cells are then re-suspended in fresh medium and left overnight. Cells are centrifuged again the next day in order to remove the medium, and are then re-suspended in fresh or salt water without any nutrient. The cell density of the suspension is determined prior to storage under the various treatments. Cells in 40 ml flask cultures are grown to mid-log phase with a density of between 3×10^6 and 3×10^7 cells/ml, and are centrifuged. Culture medium is removed after centrifugation, resulting in more concentrated algae cells. Cells are then re-suspended in ideal glass solution consisting of fresh culture medium and trehalose at a concentration of 0.1M, 0.3M, and 0.5M (dihydrate trehalose 100 from Hayashibara Co. Ltd, Okayama, Japan), respectively, and left overnight with mild agitation. Cells are centrifuged again to remove the ideal glass solution the next day, and are re-suspended in fresh or salt water without any nutrient. The cell density of the resulting suspension is determined prior to storage under the various treatments. (Some cells were also treated with a 0.5M sorbitol solution). In one specific embodiment, algae cells can be stored under air-dry conditions using autoclaved sterilized filter paper disks (15 mm Whatman Grade 1, Fisher Scientific 09-805-1B). Specifically, after one piece of paper disk is placed into each well of BD Falcon 12-well tissue culture plates, 0.1 ml algae cell suspension is placed onto each disk. The liquid cell suspension is allowed to air dry in a laminar flow hood for 1 hour. After 1 hour, the plates are closed and placed under low light at ambient temperature. Algae stored under the above preservation conditions for 5 months can be subsequently rejuvenated by removing the paper disks from the 12-well plates and placing cells in 5 ml of fresh medium under light. Cell viability is determined by comparing the cell growth in control set with the experimental set. Specifically, cell counts are performed on all samples. The averaged density value (in cells per ml) for all the cultures after treatment is defined as “rejuvenation cell count.” In some samples, the percent recovery of cells immediately after storage is also determined. The formulae are illustrated as follows: Growth=(rejuvenation cell count)/(initial cell count) Cell recovery after storage=(cell density after storage)/(initial cell density), with controls set at 100% cell recovery. Viability after storage and rejuvenation in nutrient medium=(Growth of treatment)/(Growth of control)×100%, with controls set at 100% viability

[2] = system: Tetraselmis (KAS633); test: as above; details: for % Viability: 0M control = 100%; for Growth: final/initial density
Method: as §1

[3] = system: Chlorella (KAS503); test: Trehalose preservation, storage as liquid in sponge matrix
Method: (§2) Flask cultures (40 ml) of cells are grown to mid-log phase with a density between 3×10^6 and 3×10^7 cells/ml, and are centrifuged. Culture medium is removed after centrifugation, resulting in more concentrated algae cells. Cells are then re-suspended in fresh medium and left overnight. Cells are centrifuged again the next day in order to remove the medium, and are then re-suspended in fresh or salt water without any nutrient. The cell density of the suspension is determined prior to storage under the various treatments. Cells in 40 ml flask cultures are grown to mid-log phase with a density of between 3×10^6 and 3×10^7 cells/ml, and are centrifuged. Culture medium is removed after centrifugation, resulting in more concentrated algae cells. Cells are then re-suspended in ideal glass solution consisting of fresh culture medium and trehalose at a concentration of 0.1M, 0.3M, and 0.5M (dihydrate trehalose 100 from Hayashibara Co. Ltd, Okayama, Japan), respectively, and left overnight with mild agitation. Cells are centrifuged again to remove the ideal glass solution the next day, and are re-suspended in fresh or salt water without any nutrient. The cell density of the resulting suspension is determined prior to storage under the various treatments. (Some cells were also treated with a 0.5M sorbitol solution). In one specific embodiment, non-toxic sponges made of polyurethane matrix ([…]-plugs® from Jaece Industries, Fisher Scientific 14-127-40B), 20 mm in diameter, are cut in half length-wise to fit the wells in the BD Falcon 12-well tissue culture plates and autoclave sterilized. One sponge is placed in each well of the tissue culture plate. 2.0 ml algae cell suspension is pipetted into each well, and the sponge is squeezed with sterile forceps to produce a faster uptake of the cell suspension into the sponge. Plates are subsequently closed and placed under low light and at ambient temperature. After stored under the above preservation conditions for 5 months, algae cells can be rejuvenated by squeezing the sponges with sterile forceps to allow a complete uptake of all cells in the suspension, including those cells not in the sponge such as cells remaining in the well. Cells in the sponges are then removed from the 12-well plates and placed in 10 ml of fresh medium under light. Cell viability is determined by comparing the cell growth in control set with the experimental set. Specifically, cell counts are performed on all samples. The averaged density value (in cells per ml) for all the cultures after treatment is defined as “rejuvenation cell count.” In some samples, the percent recovery of cells immediately after storage is also determined. The formulae are illustrated as follows: Growth=(rejuvenation cell count)/(initial cell count) Cell recovery after storage=(cell density after storage)/(initial cell density), with controls set at 100% cell recovery. Viability after storage and rejuvenation in nutrient medium=(Growth of treatment)/(Growth of control)×100%, with controls set at 100% viability

[4] = system: Chlorella (KAS603); test: as above
Method: as §2

[5] = system: Tetraselmis KAS633; test: as above
Method: as §2

[6] = 0.1M trehalose in F/2, 20 weeks storage in water (no nutrients)
[7] = 0.1M trehalose in F/2, 20 weeks storage
[8] = 0.3M trehalose in F/2, 20 weeks storage in water (no nutrients)
[9] = 0.3M trehalose in F/2, 20 weeks storage
[10] = 0.5M trehalose in F/2, 20 weeks storage in water (no nutrients)
[11] = 0.5M trehalose in F/2, 20 weeks storage
[12] = 0.5M trehalose in F/2, 20 weeks storage, final/initial density
[13] = 0.5M trehalose in F/2, 20 weeks storage, 0M control = 100%

OC[C@H]1O[C@H](O[C@H]2O[C@H](CO)[C@@H](O)[C@H](O)[C@H]2O)[C@H](O)[C@@H](O)[C@@H]1O [trehalose, α-D-glycosyl-α-D-glycosylpyranoside]
Cell colors on paper/in medium [1, 6]: Green/green
Final density after storage and 3 weeks rejuvenation [1, 6]: 2.278 × 10^7 cells/ml
% Viability [1, 7]: (133%)
Growth [1, 7]: 1.433
Final density after storage and 3 weeks rejuvenation [1, 8]: 4.440 × 10^7 cells/ml
% Viability [1, 9]: (144%)
Growth [1, 9]: 1.55
Final density after storage and 3 weeks rejuvenation [1, 10]: 3.140 × 10^7 cells/ml
% Viability [1, 11]: (133)%
Growth [1, 11]: 1.43
Cell colors on paper/in medium [2, 6]: Green/green
Final density after storage and 3 weeks rejuvenation [2, 6]: 8.60 × 10^6 cells/ml
% Viability [2, 7]: (80%)
Growth [2, 7]: 5.51
Final density after storage and 3 weeks rejuvenation [2, 8]: 2.15 × 10^6 cells/ml
% Viability [2, 9]: (19%)
Growth [2, 9]: 1.32
Cell colors on paper/in medium [2, 10]: White/clear
Final density after storage and 3 weeks rejuvenation [2, 10]: 1.915 × 10^6 cells/ml
% Viability [2, 11]: (16%)
Growth [2, 11]: 1.10
Final density after storage and 3 weeks rejuvenation [3, 10]: 6.565 × 10^7 cells/ml
Growth [3, 12]: 2.88
Final density after storage and 3 weeks rejuvenation [4, 10]: 2.246 × 10^7 cells/ml
% Viability [4, 13]: (193%)
Growth [4, 12]: 0.81
Final density after storage and 3 weeks rejuvenation [5, 10]: 2.031 × 10^6 cells/ml
% Viability [5, 13]: (93%)
Growth [5, 12]: 0.14

From patent US8735140B2, “Preservation and composition of bioprocess algae for production of lipids, seedstock, and feed” (Kuehnle AgroSystems, Inc., priority 2008, dated 2014)
